From ChEMBL document CHEMBL1201862, “PubChem BioAssay data set” (2004)
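Cultured in 96-well plates, cells were exposed to test compound for 48 hours across five concentrations. GI50 = concentration required for 50% inhibition of growth.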 Activity calls are given as the source filed them. Cut-off read from the data, not from the text of the source: active = GI50 up to about 1.1 µM and inactive = higher.

What was measured:
Test in all cases: NCI tumour cell line growth inhibition, 48 h
NCI-H460 = tested on: NCI-H460
UACC-257 = tested on: UACC-257
HT-29 = tested on: HT-29
A549 = tested on: A549
SF-539 = tested on: SF-539
SF-268 = tested on: SF-268
UO-31 = tested on: UO-31
RPMI-8226 = tested on: RPMI-8226
RXF 393 = tested on: RXF 393
NCI-H522 = tested on: NCI-H522
EKVX = tested on: EKVX
COLO 205 = tested on: COLO 205
OVCAR-3 = tested on: OVCAR-3
SK-MEL-28 = tested on: SK-MEL-28
SN12C = tested on: SN12C
OVCAR-4 = tested on: OVCAR-4
ACHN = tested on: ACHN
K562 = tested on: K562
A498 = tested on: A498
HOP-62 = tested on: HOP-62

Measured: GI50

C=C(Nc1ccc(OC)cc1OC)C(=O)Cc1cccc[n+]1[O-]
inactive: NCI-H460 > 100 µM | UACC-257 > 100 µM | HT-29 > 100 µM | A549 > 100 µM | SF-539 > 100 µM | SF-268 > 100 µM | UO-31 > 100 µM | RPMI-8226 > 100 µM | RXF 393 > 100 µM | NCI-H522 > 100 µM | EKVX > 100 µM | COLO 205 > 100 µM | OVCAR-3 > 100 µM | SK-MEL-28 > 100 µM | SN12C > 100 µM | OVCAR-4 > 100 µM | ACHN > 100 µM | K562 > 100 µM | A498 > 100 µM | HOP-62 > 100 µM

C[C@@H]1O[C@]2(O)[C@@H]3CCCN3S(=O)(=O)CCN2C1=O
inactive: NCI-H460 > 100 µM | UACC-257 > 100 µM | HT-29 > 100 µM | A549 > 100 µM | SF-539 > 100 µM | SF-268 > 100 µM | UO-31 > 100 µM | RPMI-8226 > 100 µM | RXF 393 > 100 µM | NCI-H522 > 100 µM | EKVX > 100 µM | COLO 205 > 100 µM | OVCAR-3 > 100 µM | SK-MEL-28 > 100 µM | SN12C > 100 µM | OVCAR-4 > 100 µM | ACHN > 100 µM | K562 > 100 µM | A498 > 100 µM | HOP-62 > 100 µM

Fc1cccc(CSc2ncnc3c2ncn3C2CCCS2)c1 (stereo not given)
inactive: NCI-H460 4.79 µM | UACC-257 15.6 µM | HT-29 15.5 µM | A549 20.1 µM | SF-539 11.7 µM | SF-268 14.8 µM | UO-31 12.1 µM | RPMI-8226 7.08 µM | RXF 393 17.3 µM | NCI-H522 15.1 µM | EKVX 18.7 µM | COLO 205 10.2 µM | OVCAR-3 17.4 µM | SK-MEL-28 18.9 µM | SN12C 25.8 µM | OVCAR-4 23.4 µM | ACHN 16.9 µM | K562 8.77 µM | A498 17.3 µM | HOP-62 17.6 µM

CC(C)(/N=N/C(C)(C)C(=O)NCCO)C(=O)NCCO
inactive: NCI-H460 > 100 µM | UACC-257 > 100 µM | HT-29 > 100 µM | A549 > 100 µM | SF-539 > 100 µM | SF-268 > 100 µM | UO-31 > 100 µM | RPMI-8226 > 100 µM | RXF 393 > 100 µM | NCI-H522 39.7 µM | EKVX > 100 µM | COLO 205 > 100 µM | OVCAR-3 > 100 µM | SK-MEL-28 > 100 µM | SN12C > 100 µM | OVCAR-4 > 100 µM | ACHN > 100 µM | K562 > 100 µM | A498 > 100 µM | HOP-62 > 100 µM

C[C@]12CC[C@H](O[C@@H]3O[C@H](CO[C@@H]4O[C@H](CO)[C@@H](O)[C@H](O)[C@H]4O)[C@@H](O)[C@H](O)[C@H]3O)C[C@@H]1CC[C@@H]1[C@@H]2CC[C@]2(C)[C@@H](C3=CC(=O)OC3)CC[C@]12O [UZARIN]
inactive: NCI-H460 7.29 µM | UACC-257 31.3 µM | HT-29 35.8 µM | A549 5.33 µM | SF-539 15.5 µM | SF-268 11 µM | UO-31 25.1 µM | RPMI-8226 43.4 µM | RXF 393 12.5 µM | NCI-H522 7.91 µM | EKVX 17.7 µM | COLO 205 50.1 µM | OVCAR-3 23.3 µM | SK-MEL-28 > 80 µM | SN12C 20.1 µM | OVCAR-4 17.3 µM | ACHN 8.57 µM | K562 24.2 µM | A498 24.9 µM | HOP-62 13.7 µM

CCOC(=O)c1nc2ccccc2n(CC)c1=O
inactive: NCI-H460 81.7 µM | UACC-257 > 100 µM | HT-29 > 100 µM | A549 > 100 µM | SF-539 > 100 µM | SF-268 > 100 µM | UO-31 > 100 µM | RPMI-8226 > 100 µM | RXF 393 > 100 µM | NCI-H522 > 100 µM | EKVX > 100 µM | COLO 205 > 100 µM | OVCAR-3 > 100 µM | SK-MEL-28 > 100 µM | SN12C > 100 µM | OVCAR-4 > 100 µM | ACHN > 100 µM | K562 > 100 µM | A498 > 100 µM | HOP-62 > 100 µM

CCN(CC)c1ccc2cc(C(=O)Nc3nc(C45CC6CC(CC(C6)C4)C5)cs3)c(=O)oc2c1
inactive: NCI-H460 > 100 µM | UACC-257 > 100 µM | HT-29 > 100 µM | A549 > 100 µM | SF-539 > 100 µM | SF-268 > 100 µM | UO-31 > 100 µM | RPMI-8226 > 100 µM | RXF 393 > 100 µM | NCI-H522 > 100 µM | EKVX > 100 µM | COLO 205 > 100 µM | OVCAR-3 > 100 µM | SK-MEL-28 > 100 µM | SN12C > 100 µM | OVCAR-4 > 100 µM | ACHN > 100 µM | K562 > 100 µM | A498 > 100 µM | HOP-62 > 100 µM
